This note sets out measurements from patent US20130190275A1, “COMBINED THERAPIES OF ANTIPSYCHOTIC DRUGS AND TETRACYCLINES IN THE TREATMENT OF PSYCHIATRIC DISORDERS” (MOR RESEARCH APPLICATIONS LTD., priority 2006, published 2013).

The subject of assay [1] is patients who experience first psychotic episode. The experiment in a line: CANTAB Stockings of Cambridge (SOC), adjuvant study. It is filed as in vivo, human. Particulars: atypical antipsychotic drug+minocycline 200 mg/day vs +placebo; p=0.001. How it is done:
The study was carried out in patients who experience first psychotic episode, and has followed the patient for a total duration of 6 months. As the study examines Minocycline as an adjuvant drug, the sample includes patients receiving one of the following atypical anti-psychotic drugs: Risperdal, Zyprexa, Geodon, Seroquel, and Leponex. […] In addition, the subjects were assessed by a battery of computerized neuropsychological tests (CANTAB—Cambridge Neuropsychological Test Automated Battery), measuring attention, memory, and planning. Executive function was tested by two tasks of the CANTAB: planning was tested by a computerized modification of the Tower of London, and working memory by a spatial working memory task. Minocycline was given as an add-on therapy. […] Clinical status was evaluated by the aforementioned scales at the onset of the study, every week for the first 6 weeks, and then once a month for the rest of the study period. Cognitive capabilities were assessed by the neuropsychological battery of tests according to the following schedule: upon initiation of the study (referred to as visit 1 in FIGS. 5-8), 3 months (referred to as visit 2 in FIGS. 5-8), and 6 months (referred to as visit 3 in FIGS. 5-8) after the start of the study. […]

Assay [2] shares this test system. The experiment in a line: GRAF score, adjuvant study. The format is in vivo, human. Particulars: atypical antipsychotic drug+minocycline 200 mg/day vs +placebo; group x time p<0.05. How it is done: (§1) The study was carried out in patients who experience first psychotic episode, and has followed the patient for a total duration of 6 months. As the study examines Minocycline as an adjuvant drug, the sample includes patients receiving one of the following atypical anti-psychotic drugs: Risperdal, Zyprexa, Geodon, Seroquel, and Leponex. […] Initial evaluation included the following clinical measures: • SCID (for reliability of diagnosis) • CGI (Clinical Global Impression) • PANSS (Positive and Negative Syndrome Scale for Schizophrenia) • SANS (Scale for the Assessment of Negative Symptoms) • Calgary Depression Scale for Schizophrenia • GAF • GRAF • Insight and Treatment Attitudes Questionnaire • QLS (Quality of Life Scale) • Multinomah Community Ability Scale • Extrapyramidal Side Effects Scale. Minocycline was given as an add-on therapy. […] Clinical status was evaluated by the aforementioned scales at the onset of the study, every week for the first 6 weeks, and then once a month for the rest of the study period. Cognitive capabilities were assessed by the neuropsychological battery of tests according to the following schedule: upon initiation of the study (referred to as visit 1 in FIGS. 5-8), 3 months (referred to as visit 2 in FIGS. 5-8), and 6 months (referred to as visit 3 in FIGS. 5-8) after the start of the study. […]

For assay [3] the test system is unchanged. The experiment in a line: Calgary Depression Scale for Schizophrenia, adjuvant study. As to conditions: atypical antipsychotic drug+minocycline 200 mg/day vs +placebo; p=0.099, n.s. The format is in vivo, human. As to the method: as §1
The test system is the same in assay [4]. The assay can be described thus: SANS (Scale for the Assessment of Negative Symptoms), adjuvant study. Particulars: atypical antipsychotic drug+minocycline 200 mg/day vs +placebo; group x time p<0.01. The format is in vivo, human. How it is done: as §1
In a further assay the test system is MK801 treated rats. The assay can be described thus: Morris Water Maze (MWM) task, MK801 animal model of schizophrenia. The format is in vivo, rat. How it is done: Morris Water Maze (MWM): The MWM consisted of a water pool (diameter=1.8 m; depth=0.6 m) containing water at 26±1° C. A hidden platform was located 1.5 cm below the water surface. Within the testing room, only distal visuo-spatial cues were available to the rats for location of the submerged platform. A video camera was placed above the center of the pool for tracking the rat, and a video tracking system (Noldus Information Technology b.v., Wageninpen, The Netherlands) with online digital output, directly fed data into a computer and analyzed. Data were analyzed by using an Etho-Vision automated tracking system (Noldus Information Technology).
Fifteen minutes before the behavioral procedures conducted at the fourth day, the subject was injected i.p. with an 0.1 mg/kg dose of MK801 or saline, for a total volume of 1 ml per kg of body weight. Next, the subjects passed the three behavioral procedures, described in the following paragraphs.
The MWM, a hippocampal-dependent visuo-spatial learning task, was used to assess the subjects' spatial learning/memory. The ability of an animal to locate a hidden platform submerged under water by using extra-maze cues from the test environment was examined. The rats were trained in a pool 1.8 m in diameter and 0.6 m high, containing water at 26±1° C. A 10 cm square transparent platform was hidden in a constant position in the pool submerged 1 cm below the water level. Within the testing room only distal visuo-spatial cues were available to the rats for location of the submerged platform.
Rats were given four trials per day, to find the hidden platform (acquisition phase). The escape latency, i.e., the time required by the rat to find and climb onto the platform, was recorded for up to 120 sec. Each rat was allowed to remain on the platform for 30 sec, and was then removed to its home cage.
Morris Water Maze (MWM): Escape latency, the time between placing the rat in the pool until it located the platform, was measured during behavioral testing. The escape latency was analyzed by means of […] repeated measures analysis of variance (ANOVA) with a between-subjects measure of ‘group’ (treatment group) and a within-subjects measure of ‘trail’ (effects amongst groups in the four different trials).
The MWM test was then performed (see FIG. 1 for results). A significant main effect of ‘group’, ‘trail’ and a significant ‘group’×‘trails’ interaction was found in the repeated measured ANOVA for the MWM task [F(5,35)=9.699, p<0.001; F(3,33)=31.551, p<0.001; F(15,91)=1.824, p<0.05; respectively].

As for `CN(C)c1ccc(O)c2c1C[C@H]1C[C@H]3[C@H](N(C)C)C(O)=C(C(N)=O)C(=O)[C@@]3(O)C(O)=C1C2=O` [minocycline], in assay [1], the “SOC number of problems solved in minimum moves” value is given as “improved significantly more than the placebo group”. Also, the GRAF score entry in assay [2] is “greater improvement of the GRAF score”. Moreover, the “Total Calgary Score” value in assay [3] is given as “tended to reach greater improvement”. Moreover, the “total SANS score” value in assay [4] is on record as “greater improvement than the placebo group”. In addition, the “escape latency, impairments induced by MK801” value in the assay with MK801 treated rats (main procedure: minocycline 35 mg/kg x 3 days, MK801 0.1 mg/kg i.p.) is on record as “reduce the impairments induced by MK801”. Also, the “escape latency, trail 4” value in the assay on MK801 treated rats (minocycline 35 mg/kg before MK801, vs MK801 group, p<0.05) is given as “significant difference when compared to the MK801 group”. Moreover, the “escape latency, improvement compared with haloperidol” value in the assay with MK801 treated rats (minocycline 35 mg/kg+MK801 vs haloperidol 0.4 mg/kg+MK801) is “somewhat more significant than that caused by haloperidol”. Further, the “dose dependence of effect in the MWM task” value in the assay with MK801 treated rats (minocycline 20, 25, 30, 35 mg/kg before MK801) is reported as “good dose dependent effect”. Moreover, the escape latency result is listed as “no significant differences with the MK801 treated rats” in the assay on MK801 treated rats (minocycline 20 and 25 mg/kg for three consecutive days before MK801, vs saline and MK801 groups); “did not differ from the saline treated group” in the assay with MK801 treated rats (minocycline 30 and 35 mg/kg for three consecutive days before MK801, vs saline group).
